In patent publication US20230041743A1, “1,8-NAPHTHYRIDIN-2-ONE COMPOUNDS FOR THE TREATMENT OF AUTOIMMUNE DISEASE” (Hoffmann-La Roche Inc., priority 2019, published 2023):

biological target: T1, human TLR7 (Homo sapiens, UniProt Q9NYK1); assay: HEK293-Blue-hTLR-7 cells assay (SEAP reporter, R848 stimulation); assay type: cell-based; details: HEK293-Blue-hTLR7 cells, R848 ligand, 20 hrs incubation; read-out: HEK/hTLR7 IC50
T1 construct: host or cells: HEK293 (HEK-Blue hTLR7)
T1 sequence (Q9NYK1 27-1049): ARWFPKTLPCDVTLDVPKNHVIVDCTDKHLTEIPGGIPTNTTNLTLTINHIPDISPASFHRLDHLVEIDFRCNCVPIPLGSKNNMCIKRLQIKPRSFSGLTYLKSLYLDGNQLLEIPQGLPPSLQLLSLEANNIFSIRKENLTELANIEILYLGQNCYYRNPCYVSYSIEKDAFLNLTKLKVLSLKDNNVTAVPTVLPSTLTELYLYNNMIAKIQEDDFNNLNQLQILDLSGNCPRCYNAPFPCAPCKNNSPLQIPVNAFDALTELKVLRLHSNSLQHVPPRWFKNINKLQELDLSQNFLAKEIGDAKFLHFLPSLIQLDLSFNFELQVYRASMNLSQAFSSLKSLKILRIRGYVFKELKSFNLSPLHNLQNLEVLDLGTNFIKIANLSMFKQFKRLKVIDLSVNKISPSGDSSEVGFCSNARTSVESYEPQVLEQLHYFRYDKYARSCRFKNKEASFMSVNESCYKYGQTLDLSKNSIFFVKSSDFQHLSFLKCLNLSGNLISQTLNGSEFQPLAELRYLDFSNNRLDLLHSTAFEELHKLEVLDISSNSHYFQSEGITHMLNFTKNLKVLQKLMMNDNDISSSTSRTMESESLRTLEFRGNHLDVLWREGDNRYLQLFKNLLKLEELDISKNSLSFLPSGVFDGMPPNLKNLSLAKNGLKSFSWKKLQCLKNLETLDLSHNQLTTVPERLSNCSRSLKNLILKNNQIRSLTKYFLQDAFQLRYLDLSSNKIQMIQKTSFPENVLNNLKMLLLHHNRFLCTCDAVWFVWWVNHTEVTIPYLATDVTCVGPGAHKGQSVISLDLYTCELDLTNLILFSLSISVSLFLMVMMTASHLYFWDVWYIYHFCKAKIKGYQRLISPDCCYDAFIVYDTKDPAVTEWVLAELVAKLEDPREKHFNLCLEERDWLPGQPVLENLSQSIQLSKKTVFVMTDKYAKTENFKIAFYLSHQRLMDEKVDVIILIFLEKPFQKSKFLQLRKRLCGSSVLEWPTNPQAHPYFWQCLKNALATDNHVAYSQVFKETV
From the text: HEK293-Blue-hTLR-7 Cells Assay:
A stable HEK293-Blue-hTLR-7 cell line was purchased from InvivoGen (Cat. #: hkb-htlr7, San Diego, Calif., USA). These cells were originally designed for studying the stimulation of human TLR7 by monitoring the activation of NF-κB. A SEAP (secreted embryonic alkaline phosphatase) reporter gene was placed under the control of the IFN-β minimal promoter fused to five NF-κB and AP-1-binding sites. The SEAP was induced by activating NF-κB and AP-1 via stimulating HEK-Blue hTLR7 cells with TLR7 ligands. Therefore the reporter expression was declined by TLR7 antagonist under the stimulation of a ligand, such as R848 (Resiquimod), for incubation of 20 hrs. The cell culture supernatant SEAP reporter activity was determined using QUANTI-Blue™ kit (Cat. #: rep-qb1, Invivogen, San Diego, Ca, USA) at a wavelength of 640 nm, a detection medium that turns purple or blue in the presence of alkaline phosphatase.
HEK293-Blue-hTLR7 cells were incubated at a density of 250,000-450,000 cells/mL in a volume of 170 μL in a 96-well plate in Dulbecco's Modified Eagle's medium (DMEM) containing 4.5 g/L glucose, 50 U/mL penicillin, […], […], 2 mM L-glutamine, 10% (v/v) heat-inactivated fetal bovine serum with addition of 20 μL test compound in a serial dilution in the presence of final DMSO at 1% and 10 μL of 20 uM R848 in above DMEM, perform incubation under 37° C. in a CO2 incubator for 20 hrs. Then 20 μL of the supernatant from each well was incubated with 180 μL Quanti-blue substrate solution at 37° C. for 2 hrs and the absorbance was read at 620˜655 nm using a spectrophotometer. The signaling pathway that TLR7 activation leads to downstream NF-κB activation has been widely accepted, and therefore similar reporter assay was modified for evaluating TLR7 antagonist.

Compound	IC50 [nM]
C[C@@H]1CN(c2cc(=O)n(C)c3ncccc23)C[C@@H]2c3ccc(N4CCNCC4)cc3CN12 [Example 12, 4-[(4R,10bS)-4-methyl-8-piperazin-1-yl-3,4,6,10b-tetrahydro-1H-pyrazino[2,1-a]isoindol-2-yl]-1-methyl-1,8-naphthyridin-2-one]	11.9
C[C@@H]1CN(c2cc(=O)n(C)c3ncccc23)C[C@@H]2c3ccc(N4CC5(CN(C)C5)C4)cc3CN12 [Example 2, 4-[(4R,10bS)-4-methyl-8-(6-methyl-2,6-diazaspiro[3.3]heptan-2-yl)-3,4,6,10b-tetrahydro-1H-pyrazino[2,1-a]isoindol-2-yl]-1-methyl-1,8-naphthyridin-2-one]	11.5
C[C@@H]1CN(c2ccc3c(c2)CN2[C@H](C)CN(c4cc(=O)n(C)c5ncccc45)C[C@H]32)CCN1 [Example 14, 4-[(4R,10bS)-4-methyl-8-[(3R)-3-methylpiperazin-1-yl]-3,4,6,10b-tetrahydro-1H-pyrazino[2,1-a]isoindol-2-yl]-1-methyl-1,8-naphthyridin-2-one]	6.4
C[C@@H]1CN(c2cc(=O)n(C)c3ncccc23)C[C@@H]2c3ccc(N4CCC[C@](C)(N)C4)cc3CN12 [Example 15, 4-[(4R,10bS)-8-[(3S)-3-amino-3-methyl-1-piperidyl]-4-methyl-3,4,6,10b-tetrahydro-1H-pyrazino[2,1-a]isoindol-2-yl]-1-methyl-1,8-naphthyridin-2-one]	12
C[C@@H]1CN(c2cc(=O)n(C)c3ncccc23)C[C@@H]2c3ccc(N4CCOC5(CNC5)C4)cc3CN12 [Example 11, 4-[(4R,10bS)-4-methyl-8-(5-oxa-2,8-diazaspiro[3.5]nonan-8-yl)-3,4,6,10b-tetrahydro-1H-pyrazino[2,1-a]isoindol-2-yl]-1-methyl-1,8-naphthyridin-2-one]	30.5
CO[C@@H]1CN(c2ccc3c(c2)CN2[C@H](C)CN(c4cc(=O)n(C)c5ncccc45)C[C@H]32)C[C@H]1N [Example 5, 4-[(4R,10bS)-8-[(3R,4R)-3-amino-4-methoxy-pyrrolidin-1-yl]-4-methyl-3,4,6,10b-tetrahydro-1H-pyrazino[2,1-a]isoindol-2-yl]-1-methyl-1,8-naphthyridin-2-one]	38.1
CO[C@H]1CN(c2ccc3c(c2)CN2[C@H](C)CN(c4cc(=O)n(C)c5ncccc45)C[C@H]32)CC[C@@H]1N [Example 8, 4-[(4R,10bS)-8-[(3S,4S)-4-amino-3-methoxy-1-piperidyl]-4-methyl-3,4,6,10b-tetrahydro-1H-pyrazino[2,1-a]isoindol-2-yl]-1-methyl-1,8-naphthyridin-2-one]	19.4

Other lines, results leading:

IC50 [nM]	Compound
10	C[C@@H]1CN(c2cc(=O)n(C)c3ncccc23)C[C@@H]2c3ccc([C@H]4CC[C@@H](N5CCOCC5)CC4)cc3CN12 [Example 27B, 4-[(4R,10bS)-4-methyl-8-(cis-4-morpholinocyclohexyl)-3,4,6,10b-tetrahydro-1H-pyrazino[2,1-a]isoindol-2-yl]-1-methyl-1,8-naphthyridin-2-one]
6.7	C[C@@H]1CN(c2cc(=O)n(C)c3ncccc23)C[C@@H]2c3ccc(C4CCCNC4)cc3CN12 (stereo partly drawn) [Example 25, 4-[(4R,10bS)-4-methyl-8-(3-piperidyl)-3,4,6,10b-tetrahydro-1H-pyrazino[2,1-a]isoindol-2-yl]-1-methyl-1,8-naphthyridin-2-one]
31	C[C@@H]1CN(c2cc(=O)n(C)c3ncccc23)C[C@@H]2c3ccc(OCCN(C)C)cc3CN12 [Example 23, 4-[(4R,10bS)-8-[2-(dimethylamino)ethoxy]-4-methyl-3,4,6,10b-tetrahydro-1H-pyrazino[2,1-a]isoindol-2-yl]-1-methyl-1,8-naphthyridin-2-one]
15.9	C[C@@H]1CN(c2cc(=O)n(C)c3ncccc23)C[C@@H]2c3ccc(N4CCC[C@@H](N)C4)cc3CN12 [Example 16, 4-[(4R,10bS)-8-[(3R)-3-amino-1-piperidyl]-4-methyl-3,4,6,10b-tetrahydro-1H-pyrazino[2,1-a]isoindol-2-yl]-1-methyl-1,8-naphthyridin-2-one]
52.1	C[C@@H]1CN(c2cc(=O)n(C)c3ncccc23)C[C@@H]2c3ccc(N4C[C@H]5C[C@@H]4CN5)cc3CN12 [Example 20, 4-[(4R,10bS)-8-[(1R,4R)-2,5-diazabicyclo[2.2.1]heptan-2-yl]-4-methyl-3,4,6,10b-tetrahydro-1H-pyrazino[2,1-a]isoindol-2-yl]-1-methyl-1,8-naphthyridin-2-one]
